Where a name gives a salt, the structure may show the parent alone. Read-outs that look alike come from different tables or passages of the source.
Key:
[1] = test system: IL-1β p17 in cerebrospinal fluid; test: Rat central nervous system IL-1β production test; format: in vivo; details: male Wistar rats, oral, LPS and BzATP in cisterna magna
Description: Rat Central Nervous System IL-1β Production Test
Male Wistar rats of 10-14 weeks old were administered with 12.5 μg/5 μL LPS (SIGMA, L2880) in the cisterna magna under isoflurane anesthesia. Two hours later, a test compound was orally administered. Further one hour later, 50 μg/5 μL BzATP (2′(3′)—O-(4-benzoylbenzoyl)adenosine 5′-triphosphate triethylammonium salt, SIGMA, B6396) was administered in the cisterna magna. Thirty minutes later, the cerebrospinal fluid was collected. The cerebrospinal fluid was subjected to Western blotting using an anti-IL-1β antibody (Millipore, AB1832P) to measure IL-1β p17, and then, the suppression rate thereof relative to the solvent-administered group was calculated.
In the Table, Dose refers to a dosage amount of each test compound, and Ex59, Ex75, Ex131, Ex132 and Ex164 represent Example 59, Example 75, Example 131, Example 132 and Example 164, respectively. It was confirmed that the compounds have inhibitory effects on IL-1β production.

[2] = test system: TNF-α production in THP-1 cells (LPS); test: TNF-α production inhibitory test; format: cell-based; details: Homo sapiens; PMA-differentiated THP-1 cells, LPS 50 ng/mL, 2 hours, ELISA
Description: TNF-α Production Inhibitory Test
To THP-1 cells, 50 ng/mL PMA (phorbol myristate acetate, SIGMA, P1585) was added and then the cells were cultured at 37° C. for 2 days. The culture medium was exchanged with serum-free RPMI-1640 medium, and a compound known in concentration was added. The cells were cultured at 37° C. for 15 minutes. LPS (lipopolysaccharide, SIMGA, L2880) was added such that the final concentrations of them became 50 ng/mL. The cells were cultured at 37° C. for 2 hours. The supernatant was collected and the concentration of TNF-α was measured by ELISA (DuoSet ELISA human TNF-α, R&D Systems, DY201). The concentration of TNF-α was plotted against the logarithm of the concentration of the test compound, and the IC50 value was calculated by sigmoidal Emax model nonlinear regression analysis.

[3] = test system: IL-1β production in THP-1 cells (LPS and ATP; NLRP3 inflammasome activation); test: THP-1 IL-1β production inhibitory test; format: cell-based, human; details: Homo sapiens, THP-1, 2 h, read-out: IC50 (nM), IL-1β production
How it was run: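 THP-1 cells were differentiated with 50 ng/mL PMA for 2 days, then held 15 min at 37 °C. Cells were stimulated with 50 ng/mL LPS plus 5 mM ATP for 2 h, and supernatant IL-1β was measured by ELISA. IC50 came from sigmoidal Emax nonlinear regression.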

[4] = PMA-differentiated THP-1 cells, LPS 50 ng/mL and ATP 5 mM, 2 hours, ELISA

Row | IC50 [3, 4] | SMILES | further results
1 | 21 nM | CC1(O)CC(Nc2nnc(-c3ccc(C(F)(F)F)cc3O)c(C3CC3)n2)C1 (centres unmarked) [Example 108, 2-(5-cyclopropyl-3-{[(1s,3s)-3-hydroxy-3-methylcyclobutyl]amino}-1,2,4-triazin-6-yl)-5-(trifluoromethyl)phenol] | IC50 [2]: ≥ 10000 nM
2 | 40 nM | Cc1nc(N[C@H]2[C@@H]3COC[C@@H]32)nnc1-c1ccc(C(F)(F)F)cc1O [Example 24] | –
3 | 66 nM | Cc1nc(NCC2(O)CCC2)nnc1-c1ccc(C(F)(F)F)cc1O [Example 17] | –
4 | 7.6 nM | Cc1nc(N[C@@H]2CCCC[C@H]2O)nnc1-c1ccc(C(F)(F)F)cc1O [Example 1, 2-(3-{[(1R,2R)-2-hydroxycyclohexyl]amino}-5-methyl-1,2,4-triazin-6-yl)-5-(trifluoromethyl)phenol] | –
5 | 18 nM | Cc1nc(N[C@@H]2CC[C@@H](O)C2)nnc1-c1ccc(C(F)(F)F)cc1O [Example 30] | –
6 | 38 nM | Cc1nc(N[C@@H]2CCC[C@H](O)C2)nnc1-c1ccc(OC(F)(F)F)cc1O [Example 84] | –
7 | 11 nM | Cc1nc(NC23CC(CO)(C2)C3)nnc1-c1ccc(C(F)(F)F)cc1O [Example 38] | –
8 | 23 nM | Oc1cc(OC(F)(F)F)ccc1-c1nnc(N[C@@H]2CCCC[C@H]2O)nc1C1CC1 [Example 116] | –
9 | 67 nM | Cc1nc(N[C@H]2C[C@@](C)(O)C2)nnc1-c1ccc(C2CC2)cc1O [Example 77] | –

Continued, compound first:

Row | SMILES | IC50 [3, 4] | further results
10 | Cc1nc(N[C@@H]2CCCN(C)C2)nnc1-c1ccc(C(F)(F)F)cc1O [Ex164] | – | suppression rate of IL-1β p17 relative to the solvent-administered group ([1]; Dose 0.3 mg/kg): 67%; suppression rate of IL-1β p17 relative to the solvent-administered group ([1]; Dose 1 mg/kg): 81%; suppression rate of IL-1β p17 relative to the solvent-administered group ([1]; Dose 3 mg/kg): 80%
11 | Cc1nc(N[C@@H]2CCCC[C@H]2O)nnc1-c1ccc(OC(F)(F)F)cc1O [Example 27, 2-(3-{[(1R,2R)-2-hydroxycyclohexyl]amino}-5-methyl-1,2,4-triazin-6-yl)-5-(trifluoromethoxy)phenol] | 10 nM | IC50 [2]: ≥ 10000 nM
12 | Cc1nc(N[C@@H]2CCCC[C@H]2N)nnc1-c1ccc(C(F)(F)F)cc1O [Ex132] | – | suppression rate of IL-1β p17 relative to the solvent-administered group ([1]; Dose 0.3 mg/kg): −3.7%^; suppression rate of IL-1β p17 relative to the solvent-administered group ([1]; Dose 1 mg/kg): 88%; suppression rate of IL-1β p17 relative to the solvent-administered group ([1]; Dose 3 mg/kg): 88%
13 | Cc1nc(N[C@@H]2CCOC[C@H]2O)nnc1-c1ccc(Cl)cc1O [Example 31, (3S,4R)-4-{[6-(4-chloro-2-hydroxyphenyl)-5-methyl-1,2,4-triazin-3-yl]amino}oxan-3-ol] | 25 nM | IC50 [2]: ≥ 10000 nM
14 | Cc1nc(N[C@@H]2CCC[C@H](O)C2)nnc1-c1ccc(C(F)F)cc1O [Example 175] | 24 nM | –
15 | CO[C@H](C)CNc1nnc(-c2ccc(C(F)(F)F)cc2O)c(C)n1 [Example 10] | 40 nM | –
16 | Cc1nc(N[C@@H]2CCCC[C@H]2O)nnc1-c1ccc(OC(F)F)cc1O [Ex131] | – | suppression rate of IL-1β p17 relative to the solvent-administered group ([1]; Dose 0.3 mg/kg): −33%; suppression rate of IL-1β p17 relative to the solvent-administered group ([1]; Dose 1 mg/kg): −54%; suppression rate of IL-1β p17 relative to the solvent-administered group ([1]; Dose 3 mg/kg): 61%
17 | Cc1ccc(-c2nnc(N[C@@H]3CCOC[C@H]3O)nc2C2CC2)c(O)c1 [Example 114] | 33 nM | –
18 | Cc1nc(N[C@@H]2CN(S(C)(=O)=O)C[C@H]2O)nnc1-c1ccc(C(F)(F)F)cc1O [Example 160, (3R,4R)-4-({6-[2-hydroxy-4-(trifluoromethyl)phenyl]-5-methyl-1,2,4-triazin-3-yl}amino)-1-(methanesulfonyl)pyrrolidin-3-ol] | 210 nM | –
19 | Cc1nc(N[C@@H]2CCCC[C@H]2O)nnc1-c1ccc(C#N)cc1O [Example 25] | 77 nM | –
20 | CC(=O)N1C[C@@H](O)[C@H](Nc2nnc(-c3ccc(C(F)(F)F)cc3O)c(C)n2)C1 [Example 163, 1-[(3R,4R)-3-hydroxy-4-({6-[2-hydroxy-4-(trifluoromethyl)phenyl]-5-methyl-1,2,4-triazin-3-yl}amino)pyrrolidin-1-yl]ethan-1-one] | 640 nM | –
21 | Cc1nc(NC[C@H]2C[C@@H](N)C2)nnc1-c1ccc(C(F)(F)F)cc1O [Example 144] | 160 nM | –
22 | Cc1nc(NC[C@H](O)C(F)(F)F)nnc1-c1ccc(C(F)(F)F)cc1O [Example 68] | 57 nM | –
23 | Cc1ccc(-c2nnc(N[C@@H]3CCOC[C@H]3O)nc2C)c(O)c1 [Example 52] | 21 nM | –
24 | Cc1nc(NCC(C)(C)O)nnc1-c1ccc(C(F)(F)F)cc1O [Example 85] | 57 nM | –
25 | CC(=O)N1CCC[C@@H](CNc2nnc(-c3ccc(C(F)(F)F)cc3O)c(C)n2)C1 [Example 153] | 7.8 nM | –
26 | COc1ccc(-c2nnc(N[C@@H]3CCCC[C@H]3O)nc2C)c(O)c1 [Example 184, 2-(3-{[(1R,2R)-2-hydroxycyclohexyl]amino}-5-methyl-1,2,4-triazin-6-yl)-5-methoxyphenol monohydrochloride] | – | IC50 [3]: 5.8 nM
